Test results: PMC8944797, “Novel Antimicrobial Peptides Designed Using a Recurrent Neural Network Reduce Mortality in Experimental Sepsis” (Antibiotics, 2022)

Legend:
[1] = test system: carbapenem-resistant isolates of Klebsiella aerogenes; test: MIC, broth dilution method (EUCAST); assay type: cell-based; settings: median (first and third quartile) over n = 12 isolates; Mueller-Hinton broth, 37 °C, 18–20 h; range tested 0 to 32 μg/mL
Protocol: (§1) The strains of bacteria were isolated in 2021 from patients in the intensive care unit of the Stavropol State Regional Clinical Hospital. Identification and determination of antibiotic resistance of bacterial isolates were carried out using the disk diffusion method as part of a routine microbiological study in accordance with the European Committee on Antimicrobial Susceptibility Testing (EUCAST) protocols in the Department of Clinical Microbiology of the Center of Clinical Pharmacology and Pharmacotherapy.
(§2) The study of the antimicrobial activity of the synthesized peptides was performed by the standard broth dilution method according to the EUCAST guidelines. Briefly, pure bacterial cultures were cultured on a solid nutrient media (mannitol salt agar, BioMedia, Russia). From a fresh morning culture, we prepared a suspension in sterile saline corresponding to a McFarland turbidity standard of 0.5 (which is equivalent to 1–2 × 10^8 CFU/mL). The resulting suspension was dissolved in the BBL^TM Mueller-Hinton broth (Becton, Dickinson and Company, Franklin Lakes, NJ, USA) to obtain an inoculum with an approximate concentration of 5 × 10^5 CFU/mL. The inoculum (100 μL per well) was added to the wells of a sterile 96-well microtiter plate with a U-shaped bottom (Medpolymer, St. Petersburg, Russia). After that, serial two-fold dilutions of tested peptides (100 μL per well) were added to the wells. There were also sterility control wells (Mueller-Hinton broth only, without bacteria) and growth control wells (bacterial inoculum without peptides). Then, the plates were incubated in a thermostat at 37 °C. […] The MIC was taken as the minimum peptide concentration at which there was no visual growth in the corresponding well [26]. The peptides were dissolved in the Mueller–Hinton broth. The experiments with each peptide and bacterial isolate were performed in triplicate (in different plates). MIC values were calculated as median values of three independent replicates (calculations are presented in Supplementary Tables S1–S3).
(§3) Calculations of MICs (median, first, and third quartile) were performed in Microsoft Excel (Supplementary Tables S1–S3). Survival analysis by the Kaplan–Meier method and log-rank (Mantel–Cox) test was performed using GraphPad Prism version 9.2.0 for macOS (GraphPad Software, San Diego, CA, USA, www.graphpad.com, accessed on 29 January 2022).

[2] = test system: carbapenem-resistant isolates of Pseudomonas aeruginosa; test: MIC, broth dilution method (EUCAST); assay type: cell-based; settings: median (first and third quartile) over n = 17 isolates; Mueller-Hinton broth, 37 °C, 18–20 h; range tested 0 to 32 μg/mL
Protocol: as §1, §2, §3

[3] = test system: carbapenem-resistant isolates of K. pneumoniae; test: MIC, broth dilution method (EUCAST); assay type: cell-based, Klebsiella pneumoniae; settings: median (first and third quartile) over n = 18 isolates; Mueller-Hinton broth, 37 °C, 18–20 h; range tested 0 to 32 μg/mL
Protocol: as §1
as §2, with “S1–S3). […]” for “S1–S3).”

[4] = test system: K. pneumoniae-induced sepsis; test: murine experimental model of K. pneumoniae-induced sepsis, survival; assay type: in vivo, ICR (CD-1) mice; settings: for Survival proportions: single i.p. 100 μg dose, n=12
Protocol: To assess the effectiveness of the studied peptides, a murine model of lethal generalized infection was used. The model of sepsis makes it possible to perform a simple and rapid screening assessment of the effectiveness of new antimicrobial agents in vivo [22, 28].
The ICR (CD-1) laboratory mice (females with an average weight of 30 g) were maintained in the vivarium of the Stavropol State Medical University. The mice (four animals per cage) were housed in temperature-controlled rooms at 24 °C and 50–60% humidity with a 12 h/12 h light/dark cycle and water and food availability ad libitum.
The animals were injected with bacterial suspensions of one of the carbapenem-resistant isolates of K. pneumoniae (isolate #7, Supplementary Table S2) prepared from a fresh morning culture in accordance with the McFarland turbidity standard of 15 (which corresponds to an approximate concentration of 4.5 × 10^9 CFU/mL). To determine the turbidity of the suspension, a DEN-1 densitometer (Biosan, Latvia) was used.
At t = 0 min, all animals were infected with K. pneumoniae: 150 μL of a 4.5 × 10^9 CFU/mL suspension (approx. 6.75 × 10^8 CFU per mice). 30 min after infection, the mice received a single injection of peptides at a dose of 100 μg. Mortality was assessed every 24 h for 5 days. Moribund animals were killed humanely to avoid unnecessary distress.
as §3

With “GIFSKLAGKKIKNLLISGLKNIGKEVGM [PEP-36, synthesized LSTM RNN-generated peptide]” the MIC [1] was “not active”, the MIC [2] was “not active” and the MIC [3] was “not active”. For the same sequence, the Survival proportions ([4]; day 1 after infecting) was 91,7%, the Survival proportions ([4]; day 2 after infecting) was 75% and the Survival proportions ([4]; day 3 after infecting) was 66,7%. For the same sequence, the “survival proportion by the end of the observation period” value ([4]; single intraperitoneal 100 μg dose 30 min after infection with 6.75 × 10^8 CFU K. pneumoniae, 5 days, n = 12 mice) was 66.7%.

“GILSSFKGVLKGAGKNLLGSLKDKLKN [PEP-174, synthesized LSTM RNN-generated peptide; probably printed as PEP-134 in b33]” was tested, and the MIC [1] was “not active”, the MIC [2] was “not active” and the MIC [3] was “not active”.

With “KWKLFKKIWSSVKLKS [PEP-136, synthesized LSTM RNN-generated peptide]” the MIC [1] was “not active”, the MIC [2] was “not active” and the MIC [3] was “not active”.
